According to publication PMC2132602 (The Journal of Cell Biology, 1998):

Target: T1, RPK (Ripped Pocket) (Drosophila melanogaster, UniProt Q7KTQ9)
T1 sequence (Q7KTQ9 1-562): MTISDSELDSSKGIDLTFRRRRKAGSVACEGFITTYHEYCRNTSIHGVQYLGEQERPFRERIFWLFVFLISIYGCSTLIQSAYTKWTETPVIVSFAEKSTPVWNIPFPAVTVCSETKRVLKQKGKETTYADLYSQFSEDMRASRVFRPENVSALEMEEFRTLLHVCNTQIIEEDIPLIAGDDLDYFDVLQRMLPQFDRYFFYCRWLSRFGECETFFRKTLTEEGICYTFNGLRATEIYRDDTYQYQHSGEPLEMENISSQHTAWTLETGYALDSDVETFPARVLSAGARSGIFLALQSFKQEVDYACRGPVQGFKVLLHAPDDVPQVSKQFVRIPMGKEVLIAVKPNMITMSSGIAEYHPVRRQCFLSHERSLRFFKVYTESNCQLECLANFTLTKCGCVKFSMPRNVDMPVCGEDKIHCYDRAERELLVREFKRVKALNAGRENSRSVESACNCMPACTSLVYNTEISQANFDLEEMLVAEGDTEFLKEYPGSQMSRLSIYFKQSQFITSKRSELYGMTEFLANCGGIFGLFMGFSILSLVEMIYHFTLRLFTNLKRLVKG
Assay: two-electrode voltage clamp, Xenopus oocytes, dose-response of Na+ current block
Assay type: cell-based

- IC50: 9 ± 0.1 µM
SMILES: N=C(N)NC(=O)c1nc(Cl)c(N)nc1N [amiloride]
